Reference: US10407467B2, “Polymyxin derivatives and their use in combination therapy together with different antibiotics” (priority 2013, dated 2019)
Numbered stars: 1 amine (or outer) side, 2 acyl side, 3 side chain; on linkers, the order of the positions; unused ones are H or OH. Bridge positions count the residues as written; N and C are the ends. Square brackets hold non-standard residues; d marks the D form. Peptide text beside a SMILES is read from it. * marks the point of attachment. ξ: configuration not given here. Cyclohexanoyl(cis-4-NH2) = N[C@H]1CC[C@@H](C(=O)*)CC1; GABA(4S-Me) = C[C@@H](CCC(=O)[*:2])N[*:1]; NMeGABA = CN(CCCC(=O)[*:2])[*:1]; Thr(3ξ) = CC(O)[C@H](N)C(=O)O; Propanoyl(3-OH) = O=C(CCO)*; Dab = NCC[C@H](N)C(=O)O; X16 = CN(C)CCCC(=O)*; Glycolyl = O=C(CO)*; X15 = O=C(C1CCNC1)*; Ava = NCCCCC(=O)O

Tests used:
Format in all cases: cell-based
Escherichia coli = assay: MIC, sole activity (no second agent); details: in the absence of Rifampicin; for MIC E. coli ATCC25922: strain ATCC25922
Outline: (§1)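 Compound tested without a second agent in cation-adjusted MHB, up to four strains per species, inoculum at 0.5 McFarland from colonies grown 18-24 h on Mueller-Hinton agar. Run in duplicate, invalid beyond 2-fold disagreement, lower duplicate or modal repeat value given, expressed relative to Polymyxin B.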

Pseudomonas aeruginosa [1] = assay: MIC, sole activity (no second agent); details: in the absence of Rifampicin; for MIC P. aeruginosa ATCC 27853: strain ATCC27853; for MIC P. aeruginosa ATCCCRM-9027: strain ATCCCRM-9027
Outline: as §1

Klebsiella pneumoniae [2] = assay: MIC, sole activity (no second agent); details: in the absence of Rifampicin; strain ATCC 4352
Outline: as §1

Pseudomonas aeruginosa [3] = assay: MIC, compound in combination with a second agent (broth microdilution); details: 1:1 (wt:wt) combination with Rifampicin, MIC = total drug concentration; for MIC P. aeruginosa CCUG 59626: strain CCUG 59626
Procedure: (§2) To evaluate the potency and spectrum of the compounds both alone and in combination with another agent, susceptibility testing was performed against up to four strains of each of the four Gram negative pathogens, Escherichia coli, Pseudomonas aeruginosa, Klebsiella pneumoniae and Acinetobacter baumannii.
(§3) Ratios of components in a combination, such as 1:1, refers to a weight to weight ratio. The minimum inhibitory concentration (MIC) refers to the total drug concentration (e.g. test compound plus second agent, such as Rifampicin).
(§4) The inoculum was prepared by making a direct suspension of isolated colonies (selected from an 18-24 hour Mueller-Hinton agar plate) adjusted to the 0.5 McFarland standard.
(§5) The assays were performed in duplicate.
(§6) In cases where the duplicate values varied by less than 2-fold, the lower of the two values is reported. If a variation of greater than 2-fold was observed, the assay was considered non-valid. Several of the compounds were subjected to multiple tests, and where this is the case, the MIC reflects the modal value obtained.
(§7) The minimum inhibitory concentration refers to the total drug concentration (e.g. test compound plus Rifampicin). The compounds are used at equal mass within the combination. The weight refers to the mass of compound as used, for example the Example Compounds are used in their TFA or sulphate salt forms.
(§8) MICs refer to the total drug concentration. Thus, where a 1:1 combination is used, this is the amount of the test compound plus the second agent. For comparison, the MIC values for the second agent alone are also given.

Klebsiella pneumoniae [4] = assay: as above; details: 1:1 (wt:wt) combination with Rifampicin, MIC = total drug concentration; for MIC K. pneumoniae ATCC-BAA-2146: strain ATCC-BAA-2146; for MIC K. pneumoniae CCUG-59348: strain CCUG-59348; for MIC K. pneumoniae NCTC 13438: strain NCTC 13438
Procedure: as §2, §3, §4, §5, §6, §7, §8

Acinetobacter baumannii [5] = assay: as above; details: 1:1 (wt:wt) combination with Rifampicin, MIC = total drug concentration; for MIC A. baumannii NCTC 13424: strain NCTC 13424
Procedure: as §2, §3, §4, §5, §6, §7, §8

Acinetobacter baumannii [6] = assay: MIC, sole activity (no second agent); details: in the absence of Rifampicin; for MIC A. baumannii ATCCBAA-747: strain ATCCBAA-747; for MIC A. baumannii NCTC 13423: strain NCTC13423
Outline: as §1

Row | SMILES | MIC E. coli ATCC25922 (Escherichia coli) [micrograms/mL] | MIC P. aeruginosa ATCC 27853 (Pseudomonas aeruginosa [1]) [micrograms/mL] | MIC K. pneumoniae ATCC 4352 (Klebsiella pneumoniae [2]) [micrograms/mL] | MIC P. aeruginosa CCUG 59626 (Pseudomonas aeruginosa [3]) [micrograms/mL] | MIC K. pneumoniae ATCC-BAA-2146 (Klebsiella pneumoniae [4]) [micrograms/mL] | MIC K. pneumoniae CCUG-59348 (Klebsiella pneumoniae [4]) [micrograms/mL] | MIC A. baumannii NCTC 13424 (Acinetobacter baumannii [5]) [micrograms/mL] | MIC E. coli NCTC9001 (Escherichia coli; strain NCTC9001) [micrograms/mL] | MIC P. aeruginosa ATCCCRM-9027 (Pseudomonas aeruginosa [1]) [micrograms/mL] | MIC A. baumannii ATCCBAA-747 (Acinetobacter baumannii [6]) [micrograms/mL] | MIC A. baumannii NCTC 13423 (Acinetobacter baumannii [6]) [micrograms/mL] | MIC K. pneumoniae NCTC 13438 (Klebsiella pneumoniae [4]) [micrograms/mL] | MIC P. aeruginosa ATCC CRM-9027 (Pseudomonas aeruginosa [3]; strain ATCC CRM-9027) [micrograms/mL] | MIC P. aeruginosa ATCC-47 (Pseudomonas aeruginosa [3]; strain ATCC-47) [micrograms/mL] | MIC A. baumannii CCUG57249 (Acinetobacter baumannii [5]; strain CCUG57249) [micrograms/mL]
1 | CC(C)C[C@@H]1NC(=O)[C@@H](Cc2ccccc2)NC(=O)[C@H](CCN)NC(=O)[C@@H](NC(=O)[C@H](CCN)NC(=O)[C@@H](NC(=O)CC(C)O)C(C)O)CCNC(=O)[C@H](C(C)O)NC(=O)[C@H](CCN)NC(=O)[C@H](CCN)NC1=O (mixture of isomers) [Example 15, 3(RS)-3- Hydroxybutanoyl polymyxin B nonapeptide] | 4 | 0.5 | 8 | 0.5 | 4 | 16 | 0.5 |  |  |  |  |  |  |  | 
2 | CC(C)C[C@@H]1NC(=O)[C@@H](Cc2ccccc2)NC(=O)[C@H](CCN)NC(=O)[C@@H](NC(=O)[C@H](CCN)NC(=O)[C@@H](NC(=O)CCCCN)C(C)O)CCNC(=O)[C@H](C(C)O)NC(=O)[C@H](CCN)NC(=O)[C@H](CCN)NC1=O (some centres unmarked) [Example 6, 5-Aminopentanoyl polymyxin B nonapeptide] (H-[Ava][Thr(3ξ)][Dab][Dab][Dab][dF]L[Dab][Dab][Thr(3ξ)]; lactam 4-C) | 2 | 0.25 | 0.5 | ≤0.06 |  | 4 |  | 2 | 0.125 | 8 | 4 |  |  |  | 
3 | CC(C)C[C@@H]1NC(=O)[C@@H](Cc2ccccc2)NC(=O)[C@H](CCN)NC(=O)[C@@H](NC(=O)[C@H](CCN)NC(=O)[C@@H](NC(=O)CO)C(C)O)CCNC(=O)[C@H](C(C)O)NC(=O)[C@H](CCN)NC(=O)[C@H](CCN)NC1=O (some centres unmarked) [Example 8, Hydroxyacetyl polymyxin B nonapeptide] (Glycolyl-[Thr(3ξ)][Dab][Dab][Dab][dF]L[Dab][Dab][Thr(3ξ)]; lactam 3-C) | 32 | 0.25 | 8 | 0.25 | 2 | 8 | 0.5 |  |  |  |  |  |  |  | 
4 | CC(C)C[C@@H]1NC(=O)[C@@H](Cc2ccccc2)NC(=O)[C@H](CCN)NC(=O)[C@@H](NC(=O)[C@H](CCN)NC(=O)[C@@H](NC(=O)C2CCNC2)C(C)O)CCNC(=O)[C@H](C(C)O)NC(=O)[C@H](CCN)NC(=O)[C@H](CCN)NC1=O (stereo partly drawn) [Example 9, [3(R,S)-Pyrrolidine-3-carbonyl]polymyxin B nonapeptide] (X15-[Thr(3ξ)][Dab][Dab][Dab][dF]L[Dab][Dab][Thr(3ξ)]; lactam 3-C) | 0.5 | 0.25 | 0.5 | 0.125 | 1 | 8 |  |  | 2 | 4 | 2 | 0.25 |  |  | 
5 | CC(C)C[C@@H]1NC(=O)[C@@H](Cc2ccccc2)NC(=O)[C@H](CCN)NC(=O)[C@@H](NC(=O)[C@H](CCN)NC(=O)[C@@H](NC(=O)CCCN(C)C)C(C)O)CCNC(=O)[C@H](C(C)O)NC(=O)[C@H](CCN)NC(=O)[C@H](CCN)NC1=O (some centres unmarked) [Example 11, 4-(N,N-dimethylamino)-butanoyl polymyxin B nonapeptide] (X16-[Thr(3ξ)][Dab][Dab][Dab][dF]L[Dab][Dab][Thr(3ξ)]; lactam 3-C) | 0.5 | 0.125 | 0.5 | 0.25 | 0.5 | 4 |  |  | 2 | 16 | 4 | 1 |  |  | 

Results, then the compound that gave them:

Row | MIC E. coli ATCC25922 (Escherichia coli) [micrograms/mL] | MIC P. aeruginosa ATCC 27853 (Pseudomonas aeruginosa [1]) [micrograms/mL] | MIC K. pneumoniae ATCC 4352 (Klebsiella pneumoniae [2]) [micrograms/mL] | MIC P. aeruginosa CCUG 59626 (Pseudomonas aeruginosa [3]) [micrograms/mL] | MIC K. pneumoniae ATCC-BAA-2146 (Klebsiella pneumoniae [4]) [micrograms/mL] | MIC K. pneumoniae CCUG-59348 (Klebsiella pneumoniae [4]) [micrograms/mL] | MIC A. baumannii NCTC 13424 (Acinetobacter baumannii [5]) [micrograms/mL] | MIC E. coli NCTC9001 (Escherichia coli; strain NCTC9001) [micrograms/mL] | MIC P. aeruginosa ATCCCRM-9027 (Pseudomonas aeruginosa [1]) [micrograms/mL] | MIC A. baumannii ATCCBAA-747 (Acinetobacter baumannii [6]) [micrograms/mL] | MIC A. baumannii NCTC 13423 (Acinetobacter baumannii [6]) [micrograms/mL] | MIC K. pneumoniae NCTC 13438 (Klebsiella pneumoniae [4]) [micrograms/mL] | MIC P. aeruginosa ATCC CRM-9027 (Pseudomonas aeruginosa [3]; strain ATCC CRM-9027) [micrograms/mL] | MIC P. aeruginosa ATCC-47 (Pseudomonas aeruginosa [3]; strain ATCC-47) [micrograms/mL] | MIC A. baumannii CCUG57249 (Acinetobacter baumannii [5]; strain CCUG57249) [micrograms/mL] | SMILES
6 | 0.5 | 0.25 | 0.5 | 0.125 |  |  | 0.125 |  |  |  |  | 0.5 | 0.125 |  |  | CNCCCC(=O)N[C@H](C(=O)N[C@@H](CCN)C(=O)N[C@H]1CCNC(=O)[C@H](C(C)O)NC(=O)[C@H](CCN)NC(=O)[C@H](CCN)NC(=O)[C@H](CC(C)C)NC(=O)[C@@H](Cc2ccccc2)NC(=O)[C@H](CCN)NC1=O)C(C)O (some centres unmarked) [Example 16, 4-(N-methylamino)-butanoyl polymyxin B nonapeptide] (NMeGABA-[Thr(3ξ)][Dab][Dab][Dab][dF]L[Dab][Dab][Thr(3ξ)]; lactam 3-C)
7 | 2 | 0.125 | 0.125 | 0.125 | 0.25 | 4 | <0.06 |  |  |  |  | 0.25 |  | 0.125 | ≤0.06 | CC(C)C[C@@H]1NC(=O)[C@@H](Cc2ccccc2)NC(=O)[C@H](CCN)NC(=O)[C@@H](NC(=O)[C@H](CCN)NC(=O)[C@@H](NC(=O)[C@H]2CC[C@@H](N)CC2)C(C)O)CCNC(=O)[C@H](C(C)O)NC(=O)[C@H](CCN)NC(=O)[C@H](CCN)NC1=O (stereo partly drawn) [Example 20, Cis-4-aminocyclohexane carbonyl polymyxin B nonapeptide] ({Cyclohexanoyl(cis-4-NH2)}-[Thr(3ξ)][Dab][Dab][Dab][dF]L[Dab][Dab][Thr(3ξ)]; lactam 3-C)
8 | >32 | 0.25 | 0.5 | 0.25 | 0.5 | 8 | 0.5 |  |  |  |  |  |  |  |  | CC(C)C[C@@H]1NC(=O)[C@@H](Cc2ccccc2)NC(=O)[C@H](CCN)NC(=O)[C@@H](NC(=O)[C@H](CCN)NC(=O)[C@@H](NC(=O)CC[C@H](C)N)C(C)O)CCNC(=O)[C@H](C(C)O)NC(=O)[C@H](CCN)NC(=O)[C@H](CCN)NC1=O (stereo partly drawn) [Example 24, 4S-aminopentanoyl polymyxin B nonapeptide] ({GABA(4S-Me)}-[Thr(3ξ)][Dab][Dab][Dab][dF]L[Dab][Dab][Thr(3ξ)]; lactam 3-C)
9 | >32 | 0.5 | 4 | 0.25 | 2 | 8 | 0.5 |  |  |  |  |  |  |  |  | CC(C)C[C@@H]1NC(=O)[C@@H](Cc2ccccc2)NC(=O)[C@H](CCN)NC(=O)[C@@H](NC(=O)[C@H](CCN)NC(=O)[C@@H](NC(=O)CCO)C(C)O)CCNC(=O)[C@H](C(C)O)NC(=O)[C@H](CCN)NC(=O)[C@H](CCN)NC1=O (some centres unmarked) [Example 26, 3-Hydroxypropanoyl polymyxinB nonapeptide] ({Propanoyl(3-OH)}-[Thr(3ξ)][Dab][Dab][Dab][dF]L[Dab][Dab][Thr(3ξ)]; lactam 3-C)
